Here are results for three compounds from US20230054318A1, “PERSONALIZED TUMOR VACCINE AND USE THEREOF FOR CANCER IMMUNOTHERAPY” (priority 2019, published 2023).

The data set is described as follows: Human Equivalent Dose (HED) calculation based on body surface area. As to conditions: for Animal NOAEL: mouse (~20 g). From the text: Provided herein are methods for calculating HED of the MBTA components based on body surface area.
See details from: Nair A B, Jacob S. A simple practice guide for dose conversion between animals and human. J Basic Clin Pharma 2016; 7:27-31
A formula to calculate HED is shown as follows:
HED(mg/kg)=Animal dose(mg/kg)Animal Km/Human Km

Mannan: the “HED/Safety Factor (10)” value is recorded as 0.3851 mg/kg; the “Maximum Recommended Starting Dose (MRSD, assuming 60 kg adult)” value is reported as 23.11 mg/day; the “Animal NOAEL” value was 47.5 mg/kg. Further, the HED (Mouse Km=3, Human Km=37) is on record as 3.851 mg/kg.
Usually NOAEL stands for the highest dose or exposure tested at which no adverse effect was seen. As for `CCOCc1nc2c(N)nc3ccccc3c2n1CC(C)(C)O` [R-848, Resiquimod, reference compound], where the note is “mouse”, the no-observed-adverse-effect level (NOAEL) is 1.2 mg/kg.
As for “Lipoteichoic acid [LTA, reference compound]”, the “Animal NOAEL” value is 1.2 mg/kg.
